Measured values published in BindingDB's records for doi:10.1111/cbdd.12686 (Jamia Hamdard, 2016).

Molecular target: Xanthine dehydrogenase/oxidase (Bos taurus, UniProt P80457)
Test: Xanthine Oxidase (XO) Assay
Conditions: pH 7.4

Chain of Xanthine dehydrogenase/oxidase (P80457 whole entry): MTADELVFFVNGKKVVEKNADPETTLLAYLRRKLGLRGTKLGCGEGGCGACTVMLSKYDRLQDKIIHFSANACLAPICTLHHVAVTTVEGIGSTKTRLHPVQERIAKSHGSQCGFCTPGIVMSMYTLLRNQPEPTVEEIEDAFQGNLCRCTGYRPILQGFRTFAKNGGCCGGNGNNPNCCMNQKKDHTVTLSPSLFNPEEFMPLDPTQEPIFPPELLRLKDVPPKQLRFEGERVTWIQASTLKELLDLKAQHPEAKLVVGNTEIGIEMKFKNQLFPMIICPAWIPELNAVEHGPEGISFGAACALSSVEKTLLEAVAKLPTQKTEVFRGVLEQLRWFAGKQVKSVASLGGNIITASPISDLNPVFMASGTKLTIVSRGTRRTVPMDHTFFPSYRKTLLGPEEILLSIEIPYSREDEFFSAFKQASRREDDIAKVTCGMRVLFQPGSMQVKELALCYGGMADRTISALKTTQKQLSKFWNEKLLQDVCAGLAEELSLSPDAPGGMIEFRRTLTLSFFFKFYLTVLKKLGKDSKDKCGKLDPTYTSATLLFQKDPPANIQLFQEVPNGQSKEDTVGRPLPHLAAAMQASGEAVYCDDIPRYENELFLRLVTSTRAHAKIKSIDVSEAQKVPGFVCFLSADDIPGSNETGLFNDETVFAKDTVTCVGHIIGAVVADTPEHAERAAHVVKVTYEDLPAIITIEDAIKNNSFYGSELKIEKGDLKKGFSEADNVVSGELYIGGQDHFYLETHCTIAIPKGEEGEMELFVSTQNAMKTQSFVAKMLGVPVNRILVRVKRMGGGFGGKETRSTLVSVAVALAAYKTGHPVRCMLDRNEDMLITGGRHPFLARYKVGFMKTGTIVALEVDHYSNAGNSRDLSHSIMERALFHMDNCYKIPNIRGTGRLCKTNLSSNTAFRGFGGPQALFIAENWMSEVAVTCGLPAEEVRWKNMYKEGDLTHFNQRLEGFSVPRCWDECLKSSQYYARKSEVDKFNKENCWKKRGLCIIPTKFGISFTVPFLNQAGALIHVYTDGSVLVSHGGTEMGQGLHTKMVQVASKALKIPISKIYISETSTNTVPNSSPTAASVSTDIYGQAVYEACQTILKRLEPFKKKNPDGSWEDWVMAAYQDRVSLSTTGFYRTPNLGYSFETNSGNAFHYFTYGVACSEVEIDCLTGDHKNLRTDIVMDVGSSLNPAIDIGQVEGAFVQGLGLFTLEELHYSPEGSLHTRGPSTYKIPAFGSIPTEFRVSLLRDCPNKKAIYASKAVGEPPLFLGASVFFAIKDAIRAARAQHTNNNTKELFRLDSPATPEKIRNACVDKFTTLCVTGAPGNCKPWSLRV

With `Cc1nc(NCc2ccccc2)sc1C(=O)O` [2-(Benzylamino)-4-methyl-1,3-thiazole-5-carboxylic acid (5a)] as the compound, how does the IC50 read?
Its IC50 is 98.1 µM.

For `Cc1nc(NCc2ccc(Cl)cc2Cl)sc1C(=O)O` [2-{[(2,4-dichlorophenyl)methyl]amino}-4-methyl-1,3-thiazole-5-carboxylic acid (5l)], which IC50 is on record?
Its IC50 is 8.1 µM.

`Cc1nc(NCc2ccccc2Br)sc1C(=O)O` [2-{[(2-bromophenyl)methyl]amino}-4-methyl-1,3-thiazole-5-carboxylic acid (5i)] was tested. Which IC50 did it give?
Its IC50 is > 100 µM.

Which IC50 does the source give for `Cc1nc(NCc2ccccc2Cl)sc1C(=O)O` [2-{[(2-chlorophenyl)methyl]amino}-4-methyl-1,3-thiazole-5-carboxylic acid (5j)] here?
The IC50 was 9.9 µM.

For `Cc1nc(NCc2ccccc2O)sc1C(=O)O` [2-{[(2-hydroxyphenyl)methyl]amino}-4-methyl-1,3-thiazole-5-carboxylic acid (5m)], which IC50 is on record?
Its IC50 is > 100 µM.

Which IC50 does the source give for `COc1ccccc1CNc1nc(C)c(C(=O)O)s1` [2-{[(2-methoxyphenyl)methyl]amino}-4-methyl-1,3-thiazole-5-carboxylic acid (5n)] here?
The IC50 was 14.7 µM.

Which IC50 does the source give for `Cc1nc(NCc2ccc(O)c(O)c2)sc1C(=O)O` [2-{[(3,4-dihydroxyphenyl)methyl]amino}-4-methyl-1,3-thiazole-5-carboxylic acid (5p)] here?
Its IC50 is 60.2 µM.

Which IC50 does the source give for `Cc1nc(NCc2ccc(Br)cc2)sc1C(=O)O` [2-{[(4-bromophenyl)methyl]amino}-4-methyl-1,3-thiazole-5-carboxylic acid (5d)] here?
The IC50 was 43.2 µM.

`Cc1nc(NCc2ccc(Cl)cc2)sc1C(=O)O` [2-{[(4-chlorophenyl)methyl]amino}-4-methyl-1,3-thiazole-5-carboxylic acid (5b)] was tested. Which IC50 did it give?
The IC50 was > 100 µM.

With `Cc1nc(NCc2ccc(F)cc2)sc1C(=O)O` [2-{[(4-fluorophenyl)methyl]amino}-4-methyl-1,3-thiazole-5-carboxylic acid (5c)] as the compound, how does the IC50 read?
Its IC50 is 30.3 µM.

How did the IC50 turn out when `Cc1nc(NCc2ccc(O)cc2)sc1C(=O)O` [2-{[(4-hydroxyphenyl)methyl]amino}-4-methyl-1,3-thiazole-5-carboxylic acid (5f)] was run?
Its IC50 is 21.5 µM.

With `COc1ccc(CNc2nc(C)c(C(=O)O)s2)cc1` [2-{[(4-methoxyphenyl)methyl]amino}-4-methyl-1,3-thiazole-5-carboxylic acid (5g)] as the compound, how does the IC50 read?
Its IC50 is > 100 µM.

How did the IC50 turn out when `Cc1ccccc1CNc1nc(C)c(C(=O)O)s1` [4-methyl-2-{[(2-methylphenyl)methyl]amino}-1,3-thiazole-5-carboxylic acid (5k)] was run?
Its IC50 is 3.6 µM.

For `Cc1ccc(CNc2nc(C)c(C(=O)O)s2)cc1` [4-methyl-2-{[(4-methylphenyl)methyl]amino}-1,3-thiazole-5-carboxylic acid (5e)], which IC50 is on record?
The IC50 was > 100 µM.
